This is an account of results in PubChem BioAssay AID328 (DTP/NCI, 2004).

Several values for one entry are separate records, joined by “and”; a condition that tells them apart may be missing. Equal entries are not always repeated. Toxic doses and inconclusive results are not listed.

In this assay the test system is BDF1 mice, P388 leukemia ip, median survival T/C. Briefly: NCI In Vivo Anticancer Drug Screen. Data for tumor model P388 Leukemia (intraperitoneal) in B6D2F1 (BDF1) mice. The following applies: endpoint: median survival time, higher = longer survival. In short, it runs like this:
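Read-out is survival of treated animals expressed relative to the vehicle group, as a T/C ratio.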

Setting [1] is: dose: 50.0 mg/kg/injection, schedule: Q01DX009 (ip), vehicle: saline with Tween-80.
Setting [2] is: dose: 100.0 mg/kg/injection, schedule: Q01DX009 (ip), vehicle: saline with Tween-80.
[3] abbreviates: dose: 100.0 mg/kg/injection, schedule: Q04DX003 (ip), vehicle: saline.
Setting [4] is: dose: 200.0 mg/kg/injection, schedule: Q04DX003 (ip), vehicle: saline.
Where [5] appears, read: dose: 25.0 mg/kg/injection, schedule: Q01DX009 (ip), vehicle: saline with Tween-80.
The mark [6] stands for this setting: dose: 50.0 mg/kg/injection, schedule: Q04DX003 (ip), vehicle: saline with Tween-80.
The mark [7] stands for this setting: dose: 100.0 mg/kg/injection, schedule: Q04DX003 (ip), vehicle: saline with Tween-80.
Where [8] appears, read: dose: 12.5 mg/kg/injection, schedule: Q04DX003 (ip), vehicle: saline.
[9] abbreviates: dose: 25.0 mg/kg/injection, schedule: Q04DX003 (ip), vehicle: saline.
[10] abbreviates: dose: 100.0 mg/kg/injection, schedule: Q01DX009 (ip), vehicle: water.
[11] abbreviates: dose: 50.0 mg/kg/injection, schedule: Q01DX009 (ip), vehicle: saline.
[12] abbreviates: dose: 100.0 mg/kg/injection, schedule: Q01DX009 (ip), vehicle: saline.
Setting [13] is: dose: 200.0 mg/kg/injection, schedule: Q01DX009 (ip), vehicle: saline.
Setting [14] is: dose: 50.0 mg/kg/injection, schedule: Q01DX009 (ip), vehicle: Klucel (hydroxypropylcellulose) (HPC).
Setting [15] is: dose: 100.0 mg/kg/injection, schedule: Q01DX009 (ip), vehicle: Klucel (hydroxypropylcellulose) (HPC).
The mark [16] stands for this setting: dose: 50.0 mg/kg/injection, schedule: Q04DX003 (ip), vehicle: saline.
Setting [17] is: dose: 18.0 mg/kg/injection, schedule: Q01DX009 (ip), vehicle: saline.

`CSc1nc(N)nc2nc[nH]c12`: the T/C by setting is: under setting [1], 109 % of control; under setting [2], 104 % of control.

In the case of `OCCNCc1ccc2ccccc2n1`, the T/C is, setting by setting: under setting [3], 100 % of control; under setting [4], 100 % of control.

Consider `CCOC(=O)C(N)Cc1ccc(N(CCCl)CCCl)cc1` (stereo not given), for which the T/C (dose: 4.0 mg/kg/injection, schedule: Q04DX003 (ip), vehicle: saline with Tween-80) was 240 % of control and 245 % of control; the T/C (dose: 6.0 mg/kg/injection, schedule: Q04DX003 (ip), vehicle: saline with Tween-80) was 272 % of control; the T/C (dose: 9.0 mg/kg/injection, schedule: Q04DX003 (ip), vehicle: saline with Tween-80) was 272 % of control and 95 % of control.

Consider `Cn1nc(N)c2ncc(C(Cl)(Cl)Cl)nc21`, for which the T/C by setting is: under setting [5], 91 % of control; under setting [6], 105 % of control; under setting [7], 90 % of control.

For `C[P+](c1ccc(Cl)cc1)(c1ccc(Cl)cc1)c1ccc(Cl)cc1`, the T/C (dose: 6.25 mg/kg/injection, schedule: Q04DX003 (ip), vehicle: saline) was 100 % of control; the T/C under setting [8] is 104 % of control; the T/C under setting [9] is 109 % of control.

For the molecule `O=C(O)C1CC[N-]CC1.O=C(O)C1CC[N-]CC1.[NH2-].[NH2-].[Pt+4]`, the T/C is 96 % of control (dose: 50.0 mg/kg/injection, schedule: Q01DX009 (ip), vehicle: water); 96 % of control under setting [10]; 113 % of control (dose: 400.0 mg/kg/injection, schedule: Q01DX009 (ip), vehicle: water).

For the molecule `O=C(O)CC(NC(=O)CP(=O)(O)O)C(=O)O` (stereo not given), the T/C is 117 % of control under setting [11]; 118 % of control under setting [12]; 100 % of control under setting [10]; 118 % of control (dose: 180.0 mg/kg/injection, schedule: Q04DX003 (ip), vehicle: saline); 157 % of control under setting [13]; 109 % of control (dose: 200.0 mg/kg/injection, schedule: Q01DX009 (ip), vehicle: water). Further, the T/C is 109 % of control (dose: 300.0 mg/kg/injection, schedule: Q01DX009 (ip), vehicle: saline); 106 % of control (dose: 300.0 mg/kg/injection, schedule: Q01DX009 (ip), vehicle: water); 109 % of control (dose: 300.0 mg/kg/injection, schedule: Q04DX003 (ip), vehicle: saline); 96 % of control (dose: 400.0 mg/kg/injection, schedule: Q01DX009 (ip), vehicle: saline); 122 % of control (dose: 500.0 mg/kg/injection, schedule: Q04DX003 (ip), vehicle: saline); 118 % of control (dose: 600.0 mg/kg/injection, schedule: Q04DX003 (ip), vehicle: saline). Further, the T/C is 163 % of control (dose: 750.0 mg/kg/injection, schedule: Q04DX003 (ip), vehicle: saline); 100 % of control (dose: 833.0 mg/kg/injection, schedule: Q04DX003 (ip), vehicle: saline); 85 % of control (dose: 1000.0 mg/kg/injection, schedule: Q04DX003 (ip), vehicle: saline); 64 % of control (dose: 1500.0 mg/kg/injection, schedule: Q04DX003 (ip), vehicle: saline).

In the case of `CCSC(C#N)=C(c1ccccc1)c1ccccc1`, the T/C by setting is: under setting [7], 103 % of control; (dose: 200.0 mg/kg/injection, schedule: Q04DX003 (ip), vehicle: saline with Tween-80) 94 % of control; (dose: 400.0 mg/kg/injection, schedule: Q04DX003 (ip), vehicle: saline with Tween-80) 92 % of control.

With `FC(F)(F)c1cc(NC2=NCCN=C(Nc3cc(C(F)(F)F)cc(C(F)(F)F)c3)SS2)cc(C(F)(F)F)c1`, the T/C under setting [14] is 102 % of control; the T/C under setting [15] is 96 % of control; the T/C (dose: 200.0 mg/kg/injection, schedule: Q01DX009 (ip), vehicle: Klucel (hydroxypropylcellulose) (HPC)) is 110 % of control.

Consider `CC(=O)OC/C=C(C)/C=C/C=C(C)/C=C/C1=C(C)CCCC1(C)C`, for which the T/C (dose: 100.0 mg/kg/injection, schedule: Q01DX010 (ip), vehicle: acetone) was 107 % of control; the T/C (dose: 200.0 mg/kg/injection, schedule: Q01DX010 (ip), vehicle: acetone) is 89 % of control; the T/C (dose: 800.0 mg/kg/injection, schedule: Q01DX010 (ip), vehicle: acetone) was 121 % of control.

For the molecule `CCCCCCCCCCCCN1CCCC(C)C1` (stereo not given), the T/C by setting is: (dose: 12.5 mg/kg/injection, schedule: Q01DX009 (ip), vehicle: saline with Tween-80) 114 % of control; under setting [5], 109 % of control; under setting [1], 98 % of control and 120 % of control.

For `CCn1c(O)c(C=N)c(=O)[nH]c1=O`, the T/C under setting [11] is 100 % of control; the T/C under setting [16] is 103 % of control; the T/C under setting [12] was 109 % of control; the T/C under setting [3] was 100 % of control; the T/C under setting [13] is 109 % of control; the T/C under setting [4] is 115 % of control.

Turning to `O=C1OCCN1/N=C\c1ccccc1`, the T/C is 95 % of control (dose: 100.0 mg/kg/injection, schedule: Q01DX001 (ip), vehicle: olive oil, sesame oil, peanut oil); 104 % of control (dose: 200.0 mg/kg/injection, schedule: Q01DX001 (ip), vehicle: olive oil, sesame oil, peanut oil); 104 % of control (dose: 400.0 mg/kg/injection, schedule: Q01DX001 (ip), vehicle: olive oil, sesame oil, peanut oil).

For the molecule `CC(C)(C)C1COP(=O)(c2ccccc2)N(c2ccccc2)C1` (stereo not given), the T/C is 92 % of control (dose: 50.0 mg/kg/injection, schedule: Q01DX005 (ip), vehicle: saline with Tween-80) and 91 % of control (dose: 100.0 mg/kg/injection, schedule: Q01DX005 (ip), vehicle: saline with Tween-80).

`CN=C(N)c1ccc(N=C(N)c2ccc(-c3ccc(C(N)=Nc4ccc(C(N)=NC)cc4)cc3)cc2)cc1`: the T/C reads like this: (dose: 3.0 mg/kg/injection, schedule: Q04DX003 (ip), vehicle: saline) 118 % of control; (dose: 3.12 mg/kg/injection, schedule: Q01DX009 (ip), vehicle: saline) 123 % of control; (dose: 5.5 mg/kg/injection, schedule: Q01DX009 (ip), vehicle: saline) 121 % of control; (dose: 6.0 mg/kg/injection, schedule: Q04DX003 (ip), vehicle: saline) 118 % of control; (dose: 12.0 mg/kg/injection, schedule: Q04DX003 (ip), vehicle: saline) 122 % of control; under setting [8], 115 % of control. Moreover, the T/C under setting [17] is 96 % of control.

Turning to `COc1cc(O)c2c(c1O)C(=O)c1cc(C)ncc1C2=O`, the T/C runs as follows: under setting [2], 91 % of control; (dose: 200.0 mg/kg/injection, schedule: Q01DX009 (ip), vehicle: saline with Tween-80) 91 % of control; (dose: 400.0 mg/kg/injection, schedule: Q01DX009 (ip), vehicle: saline with Tween-80) 91 % of control.

On to `O=[N+]([O-])c1ccc([N+](=O)[O-])c(Cl)c1`, for which the T/C is, setting by setting: (dose: 12.5 mg/kg/injection, schedule: Q04DX003 (ip), vehicle: saline with Tween-80) 90 % of control; (dose: 25.0 mg/kg/injection, schedule: Q01DX009 (ip), vehicle: Klucel (hydroxypropylcellulose) (HPC)) 100 % of control; (dose: 25.0 mg/kg/injection, schedule: Q04DX003 (ip), vehicle: saline with Tween-80) 109 % of control; under setting [14], 109 % of control; under setting [6], 109 % of control; under setting [15], 118 % of control. In addition, the T/C was 109 % of control (dose: 100.0 mg/kg/injection, schedule: Q04DX003 (ip), vehicle: Klucel (hydroxypropylcellulose) (HPC)) and 118 % of control (dose: 150.0 mg/kg/injection, schedule: Q01DX009 (ip), vehicle: Klucel (hydroxypropylcellulose) (HPC)).

Take `[NH-]CC(=O)[N-]CC(=O)O.[NH-]CC(=O)[N-]CC(=O)O.[Ni]`: the T/C runs as follows: (dose: 3.0 mg/kg/injection, schedule: Q01DX009 (ip), vehicle: saline) 100 % of control; (dose: 6.0 mg/kg/injection, schedule: Q01DX009 (ip), vehicle: saline) 103 % of control; (dose: 12.0 mg/kg/injection, schedule: Q01DX009 (ip), vehicle: saline) 116 % of control; under setting [8], 104 % of control; under setting [17], 110 % of control; under setting [9], 109 % of control. Moreover, the T/C under setting [16] was 100 % of control and 118 % of control.
